Assays:
Format in all cases: cell-based, human
normal CD34+ cells = test: Hematopoietic colony formation by normal CD34+ cells with IL-8; conditions: addition of ladarixin, FIG. 5B
[1] = system: MF CD34+, CD41+ and CD33+ cells; test: Proliferation and lineage differentiation of MF mononuclear cells cultured with IL-8, flow cytometry; conditions: ladarixin added to IL-8 culture, FIG. 4A
Procedure: To evaluate the effects of IL-8 on MF CD34^+ cells proliferation and lineage differentiation, MF mononuclear cells (MNC cells) were cultured with StemSpan™ Serum-Free Expansion Medium (SFEM) containing 20 ng/ml of stem cell factor (SCF), thrombopoietin (TPO), FL-3L and IL-3 with or without 50 ng/ml of IL-8. The cells were harvested after 3 days of incubation. The proportion of hematopoietic cells belonging to specific lineages were determined using flow cytometry.

MF CD34+ cells = test: Clonal assays of MF CD34+ cells; JAK2V617F allele status of picked hematopoietic colonies
Procedure: Individual hematopoietic colonies were randomly picked from clonal assays of CD34^+ cells from 6 MF cases and the JAK2V617F allele status was determined.
IL-8 alone increased the absolute numbers of JAK2V617F+ colonies, and the addition of Ladarixin reduced the numbers of JAK2V617F positive colonies stimulated by IL-8 (Tables 1-3).

[2] = MF1 CD34+ cells, ladarixin 10 μM + IL-8 10 ng
[3] = MF1 CD34+ cells, ladarixin 10 μM + IL-8 20 ng
[4] = MF1 CD34+ cells, ladarixin 10 μM + IL-8 50 ng
[5] = MF1 CD34+ cells, ladarixin 10 μM + IL-8 100 ng
[6] = MF1 CD34+ cells, ladarixin 10 μM, no IL-8
[7] = MF1 CD34+ cells, ladarixin 20 μM + IL-8 20 ng
[8] = MF1 CD34+ cells, ladarixin 20 μM, no IL-8
[9] = MF2 CD34+ cells, ladarixin 10 μM + IL-8 10 ng
[10] = MF2 CD34+ cells, ladarixin 10 μM + IL-8 20 ng
[11] = MF2 CD34+ cells, ladarixin 10 μM + IL-8 50 ng
[12] = MF2 CD34+ cells, ladarixin 10 μM + IL-8 100 ng
[13] = MF2 CD34+ cells, ladarixin 10 μM, no IL-8
[14] = MF2 CD34+ cells, ladarixin 20 μM + IL-8 20 ng
[15] = MF2 CD34+ cells, ladarixin 20 μM, no IL-8
[16] = MF3 CD34+ cells, ladarixin 10 μM + IL-8 10 ng
[17] = MF3 CD34+ cells, ladarixin 10 μM + IL-8 20 ng
[18] = MF3 CD34+ cells, ladarixin 10 μM + IL-8 50 ng
[19] = MF3 CD34+ cells, ladarixin 10 μM + IL-8 100 ng
[20] = MF3 CD34+ cells, ladarixin 10 μM, no IL-8
[21] = MF3 CD34+ cells, ladarixin 20 μM + IL-8 20 ng
[22] = MF3 CD34+ cells, ladarixin 20 μM, no IL-8

For C[C@@H](C(=O)NS(C)(=O)=O)c1ccc(OS(=O)(=O)C(F)(F)F)cc1 [Ladarixin, R(-)-2-[(4′-trifluoromethanesulfonyloxy)phenyl]-N-methanesulfonyl propionamide], the “hematopoietic colony formation by normal CD34+ cells” value (normal CD34+ cells) was “did not affect”, the “effect on IL-8 induced change of percentage of MF CD34+, CD41+ and CD33+ cells” value [1] was “reversed the effects of IL-8” and the “number of colonies, Heter (JAK2V617F heterozygous)” value (“number of colonies, Heter” for short) (MF CD34+ cells; [2]) was 54. For the same compound, the “number of colonies, Homo (JAK2V617F homozygous)” value (“number of colonies, Homo” below) (MF CD34+ cells; [2]) was 8, the “number of colonies, WT (JAK2 wild type)” value (MF CD34+ cells; [2]) was 0 and the “number of colonies, Heter” value (MF CD34+ cells; [3]) was 56. The “number of colonies, Homo” value (MF CD34+ cells; [3]) was 4, the “number of colonies, WT (JAK2 wild type)” value (MF CD34+ cells; [3]) was 4 and the “number of colonies, Heter” value (MF CD34+ cells; [4]) was 62. The “number of colonies, Homo” value (MF CD34+ cells; [4]) was 5, the “number of colonies, WT (JAK2 wild type)” value (MF CD34+ cells; [4]) was 0 and the “number of colonies, Heter” value (MF CD34+ cells; [5]) was 58. The “number of colonies, Homo” value (MF CD34+ cells; [5]) was 8, the “number of colonies, WT (JAK2 wild type)” value (MF CD34+ cells; [5]) was 0 and the “number of colonies, Heter” value (MF CD34+ cells; [6]) was 49. The “number of colonies, Homo” value (MF CD34+ cells; [6]) was 4, the “number of colonies, WT (JAK2 wild type)” value (MF CD34+ cells; [6]) was 0 and the “number of colonies, Heter” value (MF CD34+ cells; [7]) was 49. The “number of colonies, Homo” value (MF CD34+ cells; [7]) was 4, the “number of colonies, WT (JAK2 wild type)” value (MF CD34+ cells; [7]) was 9 and the “number of colonies, Heter” value (MF CD34+ cells; [8]) was 43. The “number of colonies, Homo” value (MF CD34+ cells; [8]) was 0, the “number of colonies, WT (JAK2 wild type)” value (MF CD34+ cells; [8]) was 16 and the “number of colonies, Heter” value (MF CD34+ cells; [9]) was 0. For the same compound, the “number of colonies, Homo” value (MF CD34+ cells; [9]) was 0, the “number of colonies, WT (JAK2 wild type)” value (MF CD34+ cells; [9]) was 49 and the “number of colonies, Heter” value (MF CD34+ cells; [10]) was 3. For the same compound, the “number of colonies, Homo” value (MF CD34+ cells; [10]) was 0, the “number of colonies, WT (JAK2 wild type)” value (MF CD34+ cells; [10]) was 35 and the “number of colonies, Heter” value (MF CD34+ cells; [11]) was 0. The “number of colonies, Homo” value (MF CD34+ cells; [11]) was 0, the “number of colonies, WT (JAK2 wild type)” value (MF CD34+ cells; [11]) was 44 and the “number of colonies, Heter” value (MF CD34+ cells; [12]) was 0. The “number of colonies, Homo” value (MF CD34+ cells; [12]) was 0, the “number of colonies, WT (JAK2 wild type)” value (MF CD34+ cells; [12]) was 46 and the “number of colonies, Heter” value (MF CD34+ cells; [13]) was 0. The “number of colonies, Homo” value (MF CD34+ cells; [13]) was 0, the “number of colonies, WT (JAK2 wild type)” value (MF CD34+ cells; [13]) was 36 and the “number of colonies, Heter” value (MF CD34+ cells; [14]) was 0. For the same compound, the “number of colonies, Homo” value (MF CD34+ cells; [14]) was 0, the “number of colonies, WT (JAK2 wild type)” value (MF CD34+ cells; [14]) was 47 and the “number of colonies, Heter” value (MF CD34+ cells; [15]) was 0. The “number of colonies, Homo” value (MF CD34+ cells; [15]) was 0, the “number of colonies, WT (JAK2 wild type)” value (MF CD34+ cells; [15]) was 44 and the “number of colonies, Heter” value (MF CD34+ cells; [16]) was 110. The “number of colonies, Homo” value (MF CD34+ cells; [16]) was 17, the “number of colonies, WT (JAK2 wild type)” value (MF CD34+ cells; [16]) was 8 and the “number of colonies, Heter” value (MF CD34+ cells; [17]) was 17. For the same compound, the “number of colonies, Homo” value (MF CD34+ cells; [17]) was 69, the “number of colonies, WT (JAK2 wild type)” value (MF CD34+ cells; [17]) was 51 and the “number of colonies, Heter” value (MF CD34+ cells; [18]) was 50. For the same compound, the “number of colonies, Homo” value (MF CD34+ cells; [18]) was 67, the “number of colonies, WT (JAK2 wild type)” value (MF CD34+ cells; [18]) was 34 and the “number of colonies, Heter” value (MF CD34+ cells; [19]) was 0. For the same compound, the “number of colonies, Homo” value (MF CD34+ cells; [19]) was 109, the “number of colonies, WT (JAK2 wild type)” value (MF CD34+ cells; [19]) was 49 and the “number of colonies, Heter” value (MF CD34+ cells; [20]) was 13. The “number of colonies, Homo” value (MF CD34+ cells; [20]) was 73, the “number of colonies, WT (JAK2 wild type)” value (MF CD34+ cells; [20]) was 13 and the “number of colonies, Heter” value (MF CD34+ cells; [21]) was 0. The “number of colonies, Homo” value (MF CD34+ cells; [21]) was 70, the “number of colonies, WT (JAK2 wild type)” value (MF CD34+ cells; [21]) was 53 and the “number of colonies, Heter” value (MF CD34+ cells; [22]) was 28. For the same compound, the “number of colonies, Homo” value (MF CD34+ cells; [22]) was 49.

From patent publication US20240115527A1, “CXCR1/CXCR2 INHIBITORS FOR USE IN TREATING MYELOFIBROSIS” (Icahn School of Medicine at Mount Sinai, priority 2020, published 2024)
